Among the test systems are ACHN renal; HL-60(TB) leukemia; HT29 colon; IGROV1 ovarian; MDA-MB-435; SNB-19 CNS; U251 CNS; UACC-257 melanoma; HCC-2998 colon; EKVX NSCLC.
Common to all, as to assay: growth of human tumour cells (NCI), 48 h

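Briefly, cells in 96-well plates were exposed to five compound concentrations for 48 h, and endpoints were estimated by linear interpolation. At the GI50, growth is halved. At the TGI there is no net growth.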

As to `N/C(=N\N=C\c1ccc(-c2ccccc2)cc1)N[N+](=O)[O-]`, the GI50 in the test on ACHN renal is > 100 µM; in the test with HL-60(TB) leukemia, 1.9 µM; with HT29 colon, 3.59 µM; in the test with IGROV1 ovarian it was 28 µM; in the test with MDA-MB-435, 0.226 µM; in the test on U251 CNS it was 3.05 µM. Besides, in the test with UACC-257 melanoma, the GI50 was > 100 µM. Moreover, the TGI in the test on ACHN renal is > 100 µM; with HL-60(TB) leukemia, 7.58 µM; with HT29 colon, > 100 µM; with IGROV1 ovarian it was > 100 µM; in the test on MDA-MB-435 it was 0.599 µM; with SNB-19 CNS it was > 100 µM. The TGI in the test with U251 CNS and with UACC-257 melanoma was > 100 µM each time.
With `CC(CN1CCN(CCOCCO)CC1)CN1c2ccccc2Sc2ccc(Cl)cc21` (stereo not given), the GI50 with ACHN renal is 3.46 µM; in the test on HCC-2998 colon, 1.91 µM; in the test on HL-60(TB) leukemia, 1.76 µM; with HT29 colon, 1.79 µM; in the test with IGROV1 ovarian, 3.36 µM; in the test with MDA-MB-435, 2.06 µM. Further, the GI50 in the test on SNB-19 CNS is 8.14 µM; in the test on U251 CNS it was 2.19 µM; in the test with UACC-257 melanoma, 1.49 µM. Further, the TGI with ACHN renal is 12.6 µM; in the test on HCC-2998 colon it was 3.51 µM; in the test with HL-60(TB) leukemia, 4.01 µM; in the test with HT29 colon, 3.36 µM; with IGROV1 ovarian it was 13.3 µM; in the test with MDA-MB-435 it was 4.96 µM. In addition, the TGI in the test on SNB-19 CNS came out at 21.8 µM; in the test on U251 CNS, 6.04 µM; in the test with UACC-257 melanoma it was 3.11 µM.
With `COc1cc2c(c(OC)c1OC)-c1ncc3cc(OC)c(OC)c(OC)c3c1C2`, the GI50 is 24 µM in the test on ACHN renal; 23.1 µM with EKVX NSCLC; 16.4 µM in the test with HCC-2998 colon; 1.92 µM in the test on HL-60(TB) leukemia; 25.2 µM with IGROV1 ovarian; 20.8 µM in the test on MDA-MB-435. For the same compound, the values for the GI50 in the test on SNB-19 CNS, in the test with U251 CNS and with UACC-257 melanoma were 28.9 µM, 33 µM and 12.1 µM, respectively. The TGI in the test on ACHN renal was found to be 78.7 µM; in the test on EKVX NSCLC, 66.7 µM; in the test on HCC-2998 colon, 30.7 µM; in the test on HL-60(TB) leukemia, 46 µM; with IGROV1 ovarian, 63.2 µM; with MDA-MB-435, 51 µM. In addition, the results for the TGI in the test with SNB-19 CNS, in the test with U251 CNS and with UACC-257 melanoma were 94.2 µM, > 100 µM and 27.2 µM, respectively.
Take `C/C(=N\Nc1ccc2ccccc2n1)c1ccccn1`: the GI50 is < 0.0389 µM with ACHN renal; 0.133 µM in the test with HCC-2998 colon; < 0.0407 µM in the test with HT29 colon; 0.223 µM with MDA-MB-435; 0.198 µM in the test with SNB-19 CNS; 0.0462 µM in the test with U251 CNS. For the same compound, the GI50 in the test with UACC-257 melanoma is 0.0579 µM. For the same compound, the TGI in the test with ACHN renal worked out at 1.32 µM; with HCC-2998 colon, 2.51 µM; with HT29 colon, 3.09 µM; with IGROV1 ovarian it was 0.979 µM; in the test with MDA-MB-435, 8.09 µM; with SNB-19 CNS, 14.3 µM. The TGI in the test with U251 CNS turned out to be 1.48 µM; in the test with UACC-257 melanoma, 0.326 µM.
With `CCN(C(=O)N1CCN(c2cc3c(cc2F)c(=O)c(C(=O)O)cn3C2CC2)CC1)c1nc(-c2ccc(C)cc2)cs1`, the GI50 was 0.976 µM with ACHN renal; 1.52 µM in the test on EKVX NSCLC; 0.694 µM with HCC-2998 colon; 0.332 µM with HT29 colon; 0.354 µM in the test on IGROV1 ovarian; 0.56 µM in the test on MDA-MB-435. The GI50 is 1.03 µM in the test on SNB-19 CNS and 1.04 µM in the test on U251 CNS. The TGI with ACHN renal, in the test on EKVX NSCLC, with HCC-2998 colon, in the test with HT29 colon, with IGROV1 ovarian and in the test with MDA-MB-435 was > 100 µM throughout. In addition, the TGI with SNB-19 CNS was > 45.4 µM; with U251 CNS, > 20.9 µM.
Take `C=CC(=O)N(C)[C@H]1C[C@H]2OC(C)(C1OC)n1c3ccccc3c3c4c(c5c6ccccc6n2c5c31)C(=O)NC4` (stereo not given in full): the GI50 with ACHN renal was 0.139 µM; in the test on EKVX NSCLC it was 0.085 µM; in the test with HCC-2998 colon, 0.575 µM; in the test on HL-60(TB) leukemia, 0.129 µM; in the test with HT29 colon it was 0.178 µM; with MDA-MB-435, 0.364 µM. Further, the GI50 was 0.17 µM with SNB-19 CNS, 0.123 µM in the test with U251 CNS and 0.216 µM in the test with UACC-257 melanoma. Also, the TGI in the test on ACHN renal is > 50 µM; in the test on EKVX NSCLC, > 50 µM; in the test with HCC-2998 colon, 1.46 µM; with HL-60(TB) leukemia, 1.59 µM; in the test with HT29 colon, 2.7 µM; with MDA-MB-435, 3.9 µM. The TGI with SNB-19 CNS was found to be 1.71 µM; with U251 CNS, 0.913 µM; in the test with UACC-257 melanoma, 1.39 µM.
`COc1cc2c(cc1OCCCCOc1cc3c(cc1OC)C(=O)N1CCC[C@H]1CN3)N=C[C@@H]1CCCN1C2=O`: the GI50 in the test on ACHN renal is 2.62 µM; in the test with EKVX NSCLC, 5.13 µM; in the test with HCC-2998 colon, 2 µM; in the test with HT29 colon it was 2.37 µM; in the test on IGROV1 ovarian, 2.42 µM; with MDA-MB-435, 0.464 µM. For the same compound, the GI50 with SNB-19 CNS is 3.16 µM; in the test with U251 CNS, 0.392 µM; with UACC-257 melanoma it was 5.64 µM. Also, the TGI in the test on ACHN renal is 29 µM; in the test with EKVX NSCLC it was 76.5 µM; in the test on HCC-2998 colon, 5.64 µM; in the test with HT29 colon it was > 23.2 µM; in the test on IGROV1 ovarian it was > 27 µM; with MDA-MB-435 it was 10.4 µM. The TGI in the test with SNB-19 CNS, with U251 CNS and in the test on UACC-257 melanoma was > 100 µM in each case.
With `Cc1c(C#N)c(=O)[nH]c(=O)n1CCN1CCN(C(=O)NCCCCCCNC(=O)N2CCN(CCn3c(C)c(C#N)c(=O)[nH]c3=O)CC2)CC1`, the TGI in the test with ACHN renal, in the test with EKVX NSCLC, with HCC-2998 colon, in the test with HL-60(TB) leukemia, in the test with HT29 colon and with IGROV1 ovarian was > 100 µM throughout. The TGI in the test on SNB-19 CNS, in the test on U251 CNS and in the test with UACC-257 melanoma was > 100 µM throughout.
Take `CC(C)CC(CC1=CCC2CC1C2(C)C)C1=C(O)C(C)(C)C(=O)C(C)(C)C1=O` (stereo not given): the GI50 in the test with ACHN renal is 0.352 µM; in the test with EKVX NSCLC, 0.33 µM; in the test with HL-60(TB) leukemia, 0.205 µM; in the test on HT29 colon it was 0.383 µM; in the test on IGROV1 ovarian, 0.5 µM; in the test with MDA-MB-435 it was 0.374 µM. The GI50 with SNB-19 CNS was 0.375 µM; in the test on U251 CNS, 0.335 µM; in the test on UACC-257 melanoma it was 0.256 µM. The TGI is 3.58 µM with ACHN renal; > 100 µM in the test on EKVX NSCLC; 0.423 µM with HL-60(TB) leukemia; 11.2 µM with HT29 colon; > 100 µM in the test with IGROV1 ovarian; 31.8 µM with MDA-MB-435. Moreover, the TGI with SNB-19 CNS was > 100 µM; in the test with U251 CNS it was > 100 µM; with UACC-257 melanoma it was 0.792 µM.
